# Data reported in patent US8980910B2, “Treatment of glaucoma” (Indiana University Research and Technology Corporation, priority 2011, dated 2015).
# Entries after “also recorded” stand apart in the source; their conditions may differ.
# Columns and labels:
# [1] = system: isoflurane-anesthetized rats; assay: infusion of bicuculline methiodide into the region of the DMH, simultaneous measurement of blood pressure, heart rate and IOP; assay type: in vivo, rat; settings: BMI 30 pmol/75 nL into the DMH vs saline vehicle
# Method: FIG. 2A-C Simultaneous measurement of blood pressure (FIG. 2A), heart rate (FIG. 2B), and IOP (FIG. 2C) in a series of isoflurane-anesthetized rats after infusion of bicuculline methiodide (30 pmol/75 nL; n=9) or saline vehicle (75 nL; n=10) into the region of the DMH. * indicates a significant difference (p<0.05) between the vehicle treated and the BMI treated group using a repeated measures ANOVA followed by post-hoc analysis for differences between timepoints using a t-test.
# To investigate whether orexin containing neurons located in the dorsornedial hypothalamus (DMH) and/or perifornical (PeF) area play a role in mediating the circadian fluctuations in IOP, isoflurane-anesthetized rats were administered orexin inhibitors and their vital functions were monitored.
# [2] = system: panic-prone rats; settings: 30 mg/kg i.p. prior to 15 min i.v. infusion of 0.5M sodium lactate
# Description: Panic disorder is associated with disruption of central inhibitory gamma-aminobutyric acid (GABAergic) tone, and may contribute to panic attacks which are consistently provoked by ordinarily mild physical stressors such as mild osmotic disturbances (e.g., intravenous sodium lactate challenges). […] Orexin/hypocretin producing neurons are almost exclusive to dorsomedial hypothalamus/perifornical area and adjacent lateral hypothalamus, and play a critical role in maintaining wakefulness, vigilance and central sympathetic mobilization, which are key components of panic and anxiety. Experiments were conducted to investigate whether the administration of either a systemic orexin 1 antagonist or silencing the hypothalamic orexin gene product with RNA interference could block lactate-induced panic responses.
# [3] = system: isoflurane anesthetized rat; assay: attenuation of physiologic responses to BMI microinjection into the DMH by systemic orexin-1 receptor antagonist; assay type: in vivo; settings: 30 mg/kg i.p.; BMI 20 pmol/50 nL into the DMH before and after antagonist; FIG. 3; listed as SB334861
# Method: FIG. 3 Continuous and simultaneous measurement of blood pressure, heart rate, and core body temperature in an isoflurane anesthetized rat after identical microinjections of BMI (20 pmol/50 nL) into the DMH (time marks 1 and 3) before and after systemic administration of the orexin-1 receptor antagonist SB334861 (30 mg/kg i.p.; time mark 2).
# Experiments were then conducted to determine whether an orexin-I receptor antagonist (SB334861) could attenuate the physiologic responses to chemical stimulation of the DMH. To test orexin inhibitors ability to attenuate the BMI stimulated response, BMI was administered to an isoflurane-anesthetized rat both before and after administration of the orexin inhibitor and the responses were monitored.
# [4] = biological target: T1, orexin receptor-1 (ORX 1) (Homo sapiens, UniProt O43613); settings: orexin A relative to orexin B; cited from earlier work
# T1 sequence (O43613 1-425): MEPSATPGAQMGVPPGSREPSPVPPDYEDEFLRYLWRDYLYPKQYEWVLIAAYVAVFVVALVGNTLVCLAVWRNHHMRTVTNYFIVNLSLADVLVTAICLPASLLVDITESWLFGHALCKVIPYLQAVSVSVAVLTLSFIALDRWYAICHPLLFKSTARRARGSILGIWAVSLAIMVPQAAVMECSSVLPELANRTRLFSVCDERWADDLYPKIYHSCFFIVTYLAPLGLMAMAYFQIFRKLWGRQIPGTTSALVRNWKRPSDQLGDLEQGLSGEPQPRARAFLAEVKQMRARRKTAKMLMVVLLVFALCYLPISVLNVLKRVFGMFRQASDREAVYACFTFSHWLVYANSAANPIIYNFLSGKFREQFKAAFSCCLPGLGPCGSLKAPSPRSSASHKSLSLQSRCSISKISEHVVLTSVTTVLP
molecule,measurement,setting,value
"C[N+]1(C)CCc2cc3c(cc2[C@H]1[C@@H]1OC(=O)c2c1ccc1c2OCO1)OCO3.[I-] [BMI, bicuculline methiodide]",blood pressure after chemical stimulation of the DMH,[1]; FIG. 2A,expected increases
same,heart rate after chemical stimulation of the DMH,[1]; FIG. 2B,expected increases
same,IOP after chemical stimulation of the DMH,[1]; FIG. 2C,evoked an increase
"Cc1nc2ccc(NC(=O)Nc3ccnc4cccnc34)cc2o1 [SB334867, 1-(2-methylbenzoxazol-6-yl)-3-[1,5]naphthyridin-4-yl urea]",lactate induced increases in core body temperature (thermogenic response),[2]; FIG. 1C,attenuated; also recorded: blocks
same,lactate induced increases in heart rate (cardioexcitatory response),[2]; FIG. 1D,attenuated; also recorded: blocks
same,BMI-evoked increase in blood pressure,[3],significant attenuation
same,BMI-evoked increase in core body temperature,[3],significant attenuation
same,BMI-evoked increase in heart rate,[3],significant attenuation
"orexin A: 33-amino acid neuropeptide, endogenous ligand of orexin receptors (QPLPDCCRQKTCSCRLYELLHGAGNHAAGILTL; Orexin-A; UniProt O43612 34-66, looked up)",affinity of ORX 1 for orexin A greater than for orexin B,[4],1 order of magnitude
